Measurements reported in patent US10076519B2 (CYTOKINETICS, INC., priority 2010, dated 2018).

Tested on: rabbit skeletal myofibrils (fast skeletal myofibrils)
Experiment: Activation of fast skeletal myofibrils (PUMA assay, PK/LDH-coupled ATPase at pCa25)
Format: biochemical
Summary of the method: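 Detergent-washed rabbit psoas myofibrils (~90% fast fibres, calcium-regulated) assayed at calcium giving 25% of maximal ATPase rate (pCa25). ADP turnover coupled via pyruvate kinase/lactate dehydrogenase to NADH oxidation, read at 340 nm. Buffer 12 mM PIPES, 2 mM MgCl2, 1 mM DTT, pH 6.8; AC1.4 values derived.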

[1] = median AC1.4 reported as class, procedure of Example 39
[2] = median AC1.4 class, procedure of Example 39
[3] = AC1.4 determined according to the procedure of Example 39, reported as class symbols

Row | Mean AC1.4 [1] | Mean AC1.4 [2] | SMILES | also measured
1 | D (D=>20 uM) |  | O=C(NCc1nccs1)c1ccc(NCC2(c3ncccc3F)CCC2)nn1 [[6-({[(3-fluoro(2-pyridyl))cyclobutyl]methyl}ami-no)pyridazin-3-yl]-N-(1,3-thiazol-2-ylmethyl)carboxamide] | 
2 | C (C=10-20 uM) |  | Cn1ccc(NC(=O)c2ccc(NCC3(c4ncccc4F)CCC3)nn2)n1 [[6-({[(3-fluoro(2-pyridyl))cyclobutyl]methyl}ami-no)pyridazin-3-yl]-N-(1-methylpyrazol-3-yl)carboxamide] | 
3 | D (D=>20 uM) |  | O=C(NC1CCCNC1=O)c1ccc(NCC2(c3ncccc3F)CCC2)nn1 (stereo not shown) [[6-({[(3-fluoro(2-pyridyl))cyclobutyl]methyl}ami-no)pyridazin-3-yl]-N-(2-oxo(3-piperidyl))carboxamide] | 
4 | D (D=>20 uM) |  | O=C(NCc1ccccn1)c1ccc(NCC2(c3ncccc3F)CCC2)nn1 [[6-({[(3-fluoro(2-pyridyl))cyclobutyl]methyl}ami-no)pyridazin-3-yl]-N-(2-pyridylmethyl)carboxamide] | 
5 | C (C=10-20 uM) |  | O=C(NCc1cccnc1)c1ccc(NCC2(c3ncccc3F)CCC2)nn1 [[6-({[(3-fluoro(2-pyridyl))cyclobutyl]methyl}ami-no)pyridazin-3-yl]-N-(3-pyridylmethyl)carboxamide] | 
6 | D (D=>20 uM) |  | O=C(NCc1ccncc1)c1ccc(NCC2(c3ncccc3F)CCC2)nn1 [[6-({[(3-fluoro(2-pyridyl))cyclobutyl]methyl}ami-no)pyridazin-3-yl]-N-(4-pyridylmethyl)carboxamide] | 
7 | D (D=>20 uM) |  | O=C(NCc1ccn[nH]1)c1ccc(NCC2(c3ncccc3F)CCC2)nn1 [[6-({[(3-fluoro(2-pyridyl))cyclobutyl]methyl}ami-no)pyridazin-3-yl]-N-(pyrazol-5-ylmethyl)carboxamide] | 
8 | D (D=>20 uM) |  | Cn1ccc(CNC(=O)c2ccc(NCC3(c4ncccc4F)CCC3)nn2)n1 [[6-({[(3-fluoro(2-pyridyl))cyclobutyl]methyl}ami-no)pyridazin-3-yl]-N-[(1-methylpyrazol-3-yl)methyl]carboxamide] | 
9 | D (D=>20 uM) |  | Cn1nccc1CNC(=O)c1ccc(NCC2(c3ncccc3F)CCC2)nn1 [[6-({[(3-fluoro(2-pyridyl))cyclobutyl]methyl}ami-no)pyridazin-3-yl]-N-[(1-methylpyrazol-5-yl)methyl]carboxamide] | 
10 | D (D=>20 uM) |  | O=C1CCC(CNC(=O)c2ccc(NCC3(c4ncccc4F)CCC3)nn2)N1 (stereo not shown) [[6-({[(3-fluoro(2-pyridyl))cyclobutyl]methyl}ami-no)pyridazin-3-yl]-N-[(5-oxopyrrolidin-2-yl)methyl]carboxamide] | 
11 | C (C=10-20 uM) |  | O=C(Nc1ncc[nH]1)c1ccc(NCC2(c3ncccc3F)CCC2)nn1 [[6-({[(3-fluoro(2-pyridyl))cyclobutyl]methyl}ami-no)pyridazin-3-yl]-N-imidazol-2-ylcarboxamide] | 
12 | B (B=1-10 uM) |  | O=C(Nc1ccon1)c1ccc(NCC2(c3ncccc3F)CCC2)nn1 [[6-({[(3-fluoro(2-pyridyl))cyclobutyl]methyl}ami-no)pyridazin-3-yl]-N-isoxazol-3-ylcarboxamide] | 
13 | D (D=>20 uM) |  | CN(Cc1nccs1)C(=O)c1ccc(NCC2(c3ncccc3F)CCC2)nn1 [[6-({[(3-fluoro(2-pyridyl))cyclobutyl]methyl}ami-no)pyridazin-3-yl]-N-methyl-N-(1,3-thiazol-2-ylmethyl)carboxamide] | 
14 | D (D=>20 uM) |  | CNC(=O)c1ccc(NCC2(c3ncccc3F)CCC2)nn1 [[6-({[(3-fluoro(2-pyridyl))cyclobutyl]methyl}ami-no)pyridazin-3-yl]-N-methylcarboxamide] | 
15 |  | B (B=1-10 uM) | O=C(Nc1ccn[nH]1)c1ccc(NCC2(c3ncccc3F)CCC2)nn1 [[6-({[(3-fluoro(2-pyridyl))cyclobutyl]methyl}ami-no)pyridazin-3-yl]-N-pyrazol-5-ylcarboxamide] | 
16 | C (C=10-20 uM) |  | OC[C@H]1CNCCN1Cc1cnc(-c2ccc(NCC3(c4ncccc4F)CCC3)nn2)s1 [[(2R)-1-({2-[6-({[(3-fluoro(2-pyridyl))cyclobutyl]methyl}ami-no)pyridazin-3-yl](1,3-thiazol-5-yl)}methyl)piperazin-2-yl]methan-1-ol] | 
17 | B (B=1-10 uM) |  | OC[C@@H]1CNCCN1Cc1cnc(-c2ccc(NCC3(c4ncccc4F)CCC3)nn2)s1 [[(2S)-1-({2-[6-({[(3-fluoro(2-pyridyl))cyclobutyl]methyl}ami-no)pyridazin-3-yl](1,3-thiazol-5-yl)}methyl)piperazin-2-yl]methan-1-ol] | 
18 |  | A (A=<1 uM) | NC(=O)NCc1cnc(-c2ccc(NCC3(c4ncccc4F)CCC3)nn2)s1 [amino-N-({2-[6-({[(3-fluoro(2-pyridyl))cyclobutyl]methyl}ami-no)pyridazin-3-yl](1,3-thiazol-5-yl)}methyl)amide] | 
19 | D (D=>20 uM) |  | NC(=O)NC1CCc2nc(-c3ccc(NCC4(c5ncccc5F)CCC4)nn3)sc2C1 (stereo not shown) [amino-N-{2-[6-({[(3-fluoro(2-pyridyl))cyclobutyl]methyl}ami-no)pyridazin-3-yl](4,5,6,7-tetrahydrobenzothiazol-6-yl)}amide] | 
20 |  | A (A=<1 uM) | NC(=S)c1cnc(-c2ccc(NCC3(c4ncccc4F)CCC3)nn2)s1 [amino{2-[6-({[(3-fluoro(2-pyridyl))cyclobutyl]methyl}ami-no)pyridazin-3-yl](1,3-thiazol-5-yl)}methane-1-thione] | 
21 | A (A=<1 uM) |  | CCOC(=O)Cc1csc(NC(=O)c2ccc(NCC3(c4ncccc4F)CCC3)nn2)n1 [ethyl 2-(2-{[6-({[(3-fluoro-2-pyridyl)cyclobutyl]methyl}ami-no)pyridazin-3-yl]carbonylamino}-1,3-thiazol-4-yl)acetate] | 

The remaining lines, values behind:

Row | SMILES | Mean AC1.4 [1] | Mean AC1.4 [2] | also measured
22 | Fc1cccnc1C1(Nc2ccc(-c3ccccc3)nn2)CCC1 [[(3-fluoro(2-pyridyl))cyclobutyl](6-phenylpyridazin-3-yl)amine] |  | B (B=1-10 uM) | 
23 | C=Cc1ccc(NC2(c3ncccc3F)CCC2)nn1 [[(3-fluoro(2-pyridyl))cyclobutyl](6-vinylpyridazin-3-yl)amine] |  | D (D=>20 uM) | 
24 | Fc1ccc(C2(Nc3ccc(-c4ccncc4)nn3)CCC2)cc1 [[(4-fluorophenyl)cyclobutyl](6-(4-pyridyl)pyridazin-3-yl)amine] |  | B (B=1-10 uM) | 
25 | Fc1ccc(C2(Nc3ccc(-c4cn[nH]c4)nn3)CCC2)cc1 [[(4-fluorophenyl)cyclobutyl](6-pyrazol-4-ylpyridazin-3-yl)amine] |  | B (B=1-10 uM) | 
26 | COc1ncccc1-c1ccc(NC2(c3ccc(F)cc3)CCC2)nn1 [[(4-fluorophenyl)cyclobutyl][6-(2-methoxy(3-pyridyl))pyridazin-3-yl]amine] |  | A (A=<1 uM) | 
27 | COc1cc(-c2ccc(NC3(c4ccc(F)cc4)CCC3)nn2)ccn1 [[(4-fluorophenyl)cyclobutyl][6-(2-methoxy(4-pyridyl))pyridazin-3-yl]amine] |  | B (B=1-10 uM) | 
28 | Cc1cc(-c2ccc(NC3(c4ccc(F)cc4)CCC3)nn2)ccn1 [[(4-fluorophenyl)cyclobutyl][6-(2-methyl(4-pyridyl))pyridazin-3-yl]amine] |  | B (B=1-10 uM) | 
29 | COc1cccc(-c2ccc(NC3(c4ccc(F)cc4)CCC3)nn2)n1 [[(4-fluorophenyl)cyclobutyl][6-(6-methoxy(2-pyridyl))pyridazin-3-yl]amine] |  | B (B=1-10 uM) | 
30 | Fc1ccc(C2(Nc3ccc(-c4cccnc4OCC(F)(F)F)nn3)CCC2)cc1 [[(4-fluorophenyl)cyclobutyl]{6-[2-(2,2,2-trifluoroethoxy)(3-pyridyl)]pyridazin-3-yl}amine] |  | B (B=1-10 uM) | 
31 | CC(C)(CNc1ccc(CNS(C)(=O)=O)nn1)c1ccc(F)cc1 [[(6-{[2-(4-fluorophenyl)-2-methylpropyl]amino}pyridazin-3-yl)methyl](methylsulfonyl)amine] |  |  | Mean AC1.4 [3]: B (B=1-10 uM)
32 | CC(C)[C@H](N)C(=O)N[C@H](C(=O)OCC(=O)NCc1cnc(-c2ccc(NCC3(c4ncccc4F)CCC3)nn2)s1)C(C)C [[N-({2-[6-({[(3-fluoro-2-pyridyl)cyclobutyl]methyl}ami-no)pyridazin-3-yl]-1,3-thiazol-5-yl}methyl)carbamoyl]methyl (2S)-2-((2S)-2-amino-3-methylbutanoylamino)-3-methylbutanoate] | A (A=<1 uM) |  | 
33 | C[C@H](N)C(=O)N[C@@H](C)C(=O)OCC(=O)NCc1cnc(-c2ccc(NCC3(c4ncccc4F)CCC3)nn2)s1 [[N-({2-[6-({[(3-fluoro-2-pyridyl)cyclobutyl]methyl}ami-no)pyridazin-3-yl]-1,3-thiazol-5-yl}methyl)carbamoyl]methyl (2S)-2-((2S)-2-aminopropanoylamino)propanoate] | A (A=<1 uM) |  | 
34 | CC(C)[C@H](N)C(=O)OCC(=O)NCc1cnc(-c2ccc(NCC3(c4ncccc4F)CCC3)nn2)s1 [[N-({2-[6-({[(3-fluoro-2-pyridyl)cyclobutyl]methyl}ami-no)pyridazin-3-yl]-1,3-thiazol-5-yl}methyl)carbamoyl]methyl (2S)-2-amino-3-methylbutanoate] | A (A=<1 uM) |  | 
35 | C[C@H](N)C(=O)OCC(=O)NCc1cnc(-c2ccc(NCC3(c4ncccc4F)CCC3)nn2)s1 [[N-({2-[6-({[(3-fluoro-2-pyridyl)cyclobutyl]methyl}ami-no)pyridazin-3-yl]-1,3-thiazol-5-yl}methyl)carbamoyl]methyl (2S)-2-aminopropanoate] | A (A=<1 uM) |  | 
36 | NS(=O)(=O)Nc1ccc(F)c(-c2ccc(NCC3(c4ncccc4F)CCC3)nn2)c1 [amino{4-fluoro-3-[6-({[(3-fluoro(2-pyridyl))cyclobutyl]methyl}ami-no)pyridazin-3-yl]phenyl}sulfonamide] |  | A (A=<1 uM) | 
37 | CCOC(=O)C1(NC(=O)c2ccc(NCC(C)(C)c3ccc(F)cc3)nn2)CC1 [ethyl 1-[(6-{[2-(4-fluorophenyl)-2-methylpropyl]amino}pyridazin-3-yl)carbonylamino]cyclopropane-carboxylate] |  |  | Mean AC1.4 [3]: D (D=>20 uM)
